This passage reports Emax results from patent publication US10278396B2, “Synergistic Bacillus thuringiensis subsp. kurstaki and cyantraniliprole mixtures for diamondback moth, beet armyworm, sugarcane borer, and soybean looper control” (priority 2016, dated 2019).

Read-outs that look alike come from different tables or passages of the source.

One experiment relates to diamondback moth larvae. In words: leaf dip test, diamondback moth larvae. In kind it is in vivo. The note with it: Plutella xylostella, foliar, Btk 0.54 ppm, cyantraniliprole 0.1 ppm, mixture 0.54 ppm + 0.1 ppm, read-out: % Efficacy. Here is the method: (§1) For these tests, standardized laboratory leaf dip methods were used to inoculate plant material with treatment(s). Dry, treated leaves were placed into Petri dishes (100×25 mm) containing filter paper wetted with 500 μl of distilled H2O (“dH2O”). Each dish was then infested with between 5 and 10 larvae, dependent on species. Efficacy ratings were taken at specified intervals. Synergy ratings were calculated for each test.
In this study, the response of diamondback moth larvae to synergistic amounts of Bacillus thuringiensis subsp. kurstaki (“Btk”) and cyantraniliprole was observed.
% Cexp=A+B−(AB/100), where % Cexp is the expected efficacy and “in which A and B are the control levels given by the single [insecticides]. […] Adopting a conservative approach, Applicant determined synergy to be present at ratios of ≥1.15. […]
In order to determine synergy, rates below normal field rate ranges must be used. If normal field rate ranges are used, all of the larvae would die (combining a lethal or near lethal dose of Bacillus thuringiensis subsp. kurstaki with a lethal dose of cyantraniliprole would most likely lead to larvae death) in every treatment and synergy would not be able to be determined. […]

The subject of the next experiment is beet armyworm larvae. The experiment is described as follows: leaf dip test, beet armyworm larvae. In kind it is in vivo. The note with it: Spodoptera exigua, foliar, Btk 0.54 ppm, cyantraniliprole 1.0 ppm, mixture 0.54 ppm + 1.0 ppm, read-out: % Efficacy. Here is the method:
as §1
(§2) % Cexp=A+B−(AB/100), where % Cexp is the expected efficacy and “in which A and B are the control levels given by the single [insecticides]. If the ratio between the experimentally observed efficacy of the mixture Cobs and the expected efficacy of the mixture is greater than 1, synergistic interactions are present in the mixture.” (Gisi, Synergisitic Interaction of Fungicides in Mixtures, The American Phytopathological Society, 86:11, 1273-1279, 1996). Adopting a conservative approach, Applicant determined synergy to be present at ratios of ≥1.15.
In this study, the response of beet armyworm larvae to synergistic amounts of Bacillus thuringiensis subsp. kurstaki and cyantraniliprole was observed.
(§3) Bacillus thuringiensis subsp. kurstaki was applied at a concentration of 0.54 ppm (0.54 μg/ml). Cyantraniliprole was applied at a concentration of 1.0 ppm (1.0 μg/ml). […]

The next experiment concerns cabbage looper larvae. In words: leaf dip test, cabbage looper larvae. In kind it is in vivo. The note with it: Trichoplusia ni, foliar, Btk 0.54 ppm, cyantraniliprole 0.50 ppm, mixture 0.54 ppm + 0.50 ppm, read-out: % Efficacy. The procedure:
as §1, §2
In this study, the response of cabbage looper larvae to Bacillus thuringiensis subsp. kurstaki and cyantraniliprole was observed.
Bacillus thuringiensis subsp. kurstaki was applied at a concentration of 0.54 ppm (0.54 μg/ml). Cyantraniliprole was applied at a concentration of 0.50 ppm (0.50 μg/ml). […]

The next experiment relates to sugarcane borer larvae. The experiment is described as follows: leaf dip test, sugarcane borer larvae. In kind it is in vivo. The note with it: Diatraea saccharalis, foliar, Btk 0.54 ppm, cyantraniliprole 1.0 ppm, mixture 0.54 ppm + 1.0 ppm, read-out: % Efficacy. The procedure: as §1, §2
In this study, the response of sugarcane borer larvae to synergistic amounts of Bacillus thuringiensis subsp. kurstaki and cyantraniliprole was observed.
as §3

The test system of experiment [1] is southwestern corn borer larvae. The experiment is described as follows: leaf dip test, southwestern corn borer larvae. It is filed as in vivo, Diatraea grandiosella. The note with it: foliar, Btk 0.54 ppm, cyantraniliprole 0.1 ppm, mixture 0.54 ppm + 0.1 ppm, read-out: % Efficacy. The procedure:
as §1, §2
In this study, the response of southwestern corn borer larvae to Bacillus thuringiensis subsp. kurstaki and cyantraniliprole was observed.
Bacillus thuringiensis subsp. kurstaki was applied at a concentration of 0.54 ppm (0.54 μg/ml). Cyantraniliprole was applied at a concentration of 0.1 ppm (0.1 μg/ml). […]

The subject of a further experiment is soybean looper larvae. The experiment is described as follows: leaf dip test, soybean looper larvae. The settings on record: foliar, Btk 0.54 ppm, cyantraniliprole 1.0 ppm, mixture 0.54 ppm + 1.0 ppm, read-out: % Efficacy. In kind it is in vivo, Chrysodeixis includens. The procedure: as §1, §2
In this study, the response of soybean looper larvae to synergistic amounts of Bacillus thuringiensis subsp. kurstaki and cyantraniliprole was observed.
as §3

The subject of another experiment is corn earworm larvae. In words: leaf dip test, corn earworm larvae. In kind it is in vivo. The note with it: Helicoverpa zea, foliar, Btk 0.54 ppm, cyantraniliprole 10.0 ppm, mixture 0.54 ppm + 10.0 ppm, read-out: % Efficacy. The procedure:
as §1, §2
In this study, the response of corn earworm larvae to Bacillus thuringiensis subsp. kurstaki and cyantraniliprole was observed.
Bacillus thuringiensis subsp. kurstaki was applied at a concentration of 0.54 ppm (0.54 μg/ml). Cyantraniliprole was applied at a concentration of 10.0 ppm (10.0 μg/ml). […]

Regarding `CNC(=O)c1cc(C#N)cc(C)c1NC(=O)c1cc(Br)nn1-c1ncccc1Cl` [Cyantraniliprole, 3-Bromo-1-(3-chloro-2-pyridinyl)-N-[4-cyano-2-methyl-6-(methylcarbamoyl)phenyl]-1H-pyrazole-5-carboxamide], the Emax at 0.1 ppm in the experiment on diamondback moth larvae (24 h after treatment) amounted to 16%; in the experiment on diamondback moth larvae (48 h after treatment), 47%; in experiment [1] (24 h after treatment), 23%; in experiment [1] (48 h after treatment), 39%. In addition, the Emax at 1 ppm in the experiment with beet armyworm larvae (24 h after treatment) turned out to be 20%; in the experiment with beet armyworm larvae (48 h after treatment), 37%; in the experiment on sugarcane borer larvae (24 h after treatment), 30%; in the experiment on sugarcane borer larvae (48 h after treatment), 32%; in the experiment on soybean looper larvae (24 h after treatment), 6%; in the experiment on soybean looper larvae (48 h after treatment), 10%. Also, the Emax at 0.5 ppm is 15% in the experiment with cabbage looper larvae (24 h after treatment) and 51% with cabbage looper larvae (48 h after treatment). The Emax at 10 ppm with corn earworm larvae (24 h after treatment) came out at 29%; in the experiment with corn earworm larvae (48 h after treatment) it was 33%.
